# Results: US6642216B2, “Isoprenoid pathway inhibitors for stimulating bone growth” (ZymoGenetics Corporation, priority 1996, dated 2003)
# Legend:
# BMP-2 promoter = assay: ABA assay: BMP-2 promoter-luciferase reporter in 2T3-BMP-2-LUC osteoblast cells; assay type: cell-based, mouse
# Protocol: These transformed cells are then evaluated for the production of the reporter gene product; compounds that activate the BMP promoter will drive production of the reporter protein, which can be readily assayed.
# The cells were cultured using α-MEM, 10% FCS with 1% penicillin/streptomycin and 1% glutamine (“plating medium”), and were split 1:5 once per week. For the assay, the cells were resuspended in a plating medium containing 4% FCS, plated in microtiter plates at a concentration of 5×10^3 cells (in 50 μl)/well, and incubated for 24 hours at 37° C. in 5% CO2. To initiate the assay, 50 μl of the test compound or the control in DMSO was added at 2× concentration to each well, so that the final volume was 100 μl. The final serum concentration was 2% FCS, and the final DMSO concentration was 1%.
# The treated cells were incubated for 24 hours at 37° C. and 5% CO2. The medium was then removed, and the cells were rinsed three times with PBS. After removal of excess PBS, 25 μl of 1× cell culture lysing reagent (Promega #E153A) was added to each well and incubated for at least ten minutes. Optionally, the plates/samples could be frozen at this point. To each well was added 50 μl of luciferase substrate (Promega #E152A; 10 ml Promega luciferase assay buffer per 7 mg Promega luciferase assay substrate). Luminescence was measured on an automated 96-well luminometer, and was expressed as either picograms of luciferase activity per well or as picograms of luciferase activity per microgram of protein.
# Alternatively, the reactivity of a compound to be tested can be compared directly to a negative control containing no compound.
# neonatal mouse calvaria = assay: Neonatal mouse calvaria assay (in vitro bone formation); assay type: cell-based; set-up: Osteoblast Number, % increase over vehicle control / New Bone Area, % increase over vehicle control: concentration or dose not given beside the values
# Protocol: Briefly, four days after birth, the front and parietal bones of ICR Swiss white mouse pups are removed by microdissection and split along the sagittal suture.
# Three μm sections of the calvaria are prepared. Representative sections are selected for histomorphometric assessment of bone formation or bone resorption. Bone changes are measured on sections cut 200 μm apart. Osteoblasts and osteoclasts are identified by their distinctive morphology.
# Selected compounds and appropriate controls were assayed in vitro (ex vivo) for bone formation activity (described above in “Neonatal Mouse Calvaria Assay (in vitro)”). Histomorphometrical assessments of ex vivo calvaria were carried out using an OsteoMetrics bone morphometry measurement program, according to the manufacturer's instructions. Measurements were determined using either a 10- or 20-fold objective with a standard point counting eyepiece graticule.
# New bone formation was determined (using a 10× objective) by measuring the new bone area formed in one field in 3 representative sections of each bone (4 bones per group). Each measurement was carried out ½ field distance from the end of the suture. Both total bone and old bone area were measured. Data were expressed as new bone area in mm^2.
# Osteoblast numbers were determined by point counting. The number of osteoblast cells lining the bone surface on both sides of the bone were counted in one field using a 20× objective. Data were expressed as osteoblast numbers/mm of bone surface.
# The results were calculated as new bone area in mm^2×10^−3, as above.
# [1] = test system: ICR Swiss white mice calvaria; assay: In vivo murine calvarial bone growth assay; set-up: species or system mouse
# Protocol: Male ICR Swiss white mice, aged 4-6 weeks and weighing 13-26 gm, are employed, using 4-5 mice per group. The calvarial bone growth assay is performed as described in PCT application WO 95/24211, incorporated by reference. Briefly, the test compound or appropriate control vehicle is injected into the subcutaneous tissue over the right calvaria of normal mice. Typically, the control vehicle is the vehicle in which the compound was solubilized, and is PBS containing 5% DMSO or is PBS containing Tween (2 μl/10 ml). The animals are sacrificed on day 14 and bone growth measured by histomorphometry. Bone samples for quantitation are cleaned from adjacent tissues and fixed in 10% buffered formalin for 24-48 hours, decalcified in 14% EDTA for 1-3 weeks, processed through graded alcohols; and embedded in paraffin wax. Three to five μm sections of the calvaria are prepared, and representative sections are selected for histomorphometric assessment of the effects on bone formation and bone resorption. Sections are measured by using a camera lucida attachment to trace directly the microscopic image onto a digitizing plate. Bone changes are measured on sections cut 200 μm apart, over 4 adjacent 1×1 mm fields on both the injected and noninjected sides of the calvaria. New bone is identified by its characteristic woven structure, and osteoclasts and osteoblasts are identified by their distinctive morphology. Histomorphometry software (OsteoMeasure, Osteometrix, Inc., Atlanta) is used to process digitizer input to determine cell counts and measure areas or perimeters.
# The results are reported as a measurement of total bone area (and % increase in area over vehicle control), as shown below.
smiles,measurement,setting,value
"CCC(C)(C)C(=O)O[C@H]1C[C@@H](C)C=C2C=C[C@H](C)[C@H](CC[C@@H]3C[C@@H](O)CC(=O)O3)[C@H]21 [Simvastatin, simvastatin]",% 59-0008 Response,"BMP-2 promoter; Experiment 1, 0.195312 μg/ml",29.030%
same,% 59-0008 Response,"BMP-2 promoter; Experiment 1, 0.390625 μg/ml",38.210%
same,% 59-0008 Response,"BMP-2 promoter; Experiment 1, 0.78125 μg/ml",69.600%
same,% 59-0008 Response,"BMP-2 promoter; Experiment 1, 1.5625 μg/ml",99.170%
same,% 59-0008 Response,"BMP-2 promoter; Experiment 1, 3.125 μg/ml",135.610%
same,% 59-0008 Response,"BMP-2 promoter; Experiment 1, 6.25 μg/ml",141.970%
same,% 59-0008 Response,"BMP-2 promoter; Experiment 1, 12.5 μg/ml",131.300%
same,% 59-0008 Response,"BMP-2 promoter; Experiment 1, 25 μg/ml",148.310%
same,% 59-0008 Response,"BMP-2 promoter; Experiment 1, 50 μg/ml",−22.950%
same,% 59-0008 Response,"BMP-2 promoter; Experiment 1, 100 μg/ml",−23.010%
same,% 59-0008 Response,"BMP-2 promoter; Experiment 1, 200 μg/ml",−22.960%
same,% 59-0008 Response,"BMP-2 promoter; Experiment 2, 0.465820 μM, 0.195312 μg/ml",0.310%
same,% 59-0008 Response,"BMP-2 promoter; Experiment 2, 0.931640 μM, 0.390625 μg/ml",2.600%
same,% 59-0008 Response,"BMP-2 promoter; Experiment 2, 1.863281 μM, 0.78125 μg/ml",6.820%
same,% 59-0008 Response,"BMP-2 promoter; Experiment 2, 3.726562 μM, 1.5625 μg/ml",19.670%
same,% 59-0008 Response,"BMP-2 promoter; Experiment 2, 7.453125 μM, 3.125 μg/ml",51.660%
same,% 59-0008 Response,"BMP-2 promoter; Experiment 2, 14.90625 μM, 6.25 μg/ml",104.640%
same,% 59-0008 Response,"BMP-2 promoter; Experiment 2, 29.8125 μM, 12.5 μg/ml",152.290%
same,% 59-0008 Response,"BMP-2 promoter; Experiment 2, 59.625 μM, 25 μg/ml",180.640%
same,% 59-0008 Response,"BMP-2 promoter; Experiment 2, 119.25 μM, 50 μg/ml",189.430%
same,% 59-0008 Response,"BMP-2 promoter; Experiment 2, 238.5 μM, 100 μg/ml",304.100%
same,% 59-0008 Response,"BMP-2 promoter; Experiment 2, 477 μM, 200 μg/ml",222.180%
same,New Bone Area,"neonatal mouse calvaria; Experiment 1, 3 days",8.5 mm^2 × 10^−3
same,"New Bone Area, % increase over vehicle control","neonatal mouse calvaria; Experiment 1, 3 days",77%
same,Osteoblast Number,"neonatal mouse calvaria; Experiment 1, 3 days",156 Obs/field
same,"Osteoblast Number, % increase over vehicle control","neonatal mouse calvaria; Experiment 1, 3 days",63%
same,New Bone Area,"neonatal mouse calvaria; Experiment 1, 7 days",17.4 mm^2 × 10^−3
same,"New Bone Area, % increase over vehicle control","neonatal mouse calvaria; Experiment 1, 7 days",123%
same,Osteoblast Number,"neonatal mouse calvaria; Experiment 1, 7 days",154 Obs/field
same,"Osteoblast Number, % increase over vehicle control","neonatal mouse calvaria; Experiment 1, 7 days",68%
same,New Bone Area,"neonatal mouse calvaria; Experiment 2, 3 days",15.4 mm^2 × 10^−3
same,"New Bone Area, % increase over vehicle control","neonatal mouse calvaria; Experiment 2, 3 days",285%
same,Osteoblast Number,"neonatal mouse calvaria; Experiment 2, 3 days",154 Obs/field
same,"Osteoblast Number, % increase over vehicle control","neonatal mouse calvaria; Experiment 2, 3 days",70%
same,New Bone Area,"neonatal mouse calvaria; combination study, IBN (1 μM), 59-0328 0.1 μM alone",5.1 ± 0.49 mm^2 × 10^−3
same,New Bone Area,"neonatal mouse calvaria; combination study, IBN (1 μM), 59-0328 0.2 μM alone",5.23 ± 0.89 mm^2 × 10^−3
same,New Bone Area,"neonatal mouse calvaria; combination study, IBN (10 μM), 59-0328 0.1 μM alone",4.25 ± 0.59 mm^2 × 10^−3
same,New Bone Area,"neonatal mouse calvaria; combination study, IBN (10 μM), 59-0328 0.2 μM alone",6.83 ± 1.54 mm^2 × 10^−3
same,% increase in total bone area over vehicle control,[1]; 1 mg/kg/day,2%
same,Total Bone Area,[1]; 1 mg/kg/day,172 μm^2
same,% increase in total bone area over vehicle control,[1]; 5 mg/kg/day,20%
same,Total Bone Area,[1]; 5 mg/kg/day,202 μm^2
same,% increase in total bone area over vehicle control,[1]; 10 mg/kg/day,46%
same,Total Bone Area,[1]; 10 mg/kg/day,245 μm^2
same,increase in the number of osteoblasts,"[1]; mouse, in vivo",1.5 fold
